# Test results published in US10947271B2, “Antibacterial agents” (THE UNIVERSITY OF QUEENSLAND, priority 2014, dated 2021).
# Legend:
# Assay type in all cases: cell-based
# Conditions in all cases: 24 h incubation, visual reading
# [1] = test system: Streptococcus pneumoniae MDR ATCC 700677; assay: MIC assay, S. pneumoniae MDR ATCC 700677
# Procedure, shortened: (§1)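 Overnight MHB cultures at 37° C were diluted 40-fold and grown 2-3 hrs to mid-log, then added at 5×10e5 CFU/mL to twofold compound dilutions (8 to 0.003 μg/ml). Plates were incubated 24 h at 37° C and MIC scored by eye.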
# [2] = test system: Staphylococcus aureus MRSA ATCC 43300; assay: MIC assay, S. aureus MRSA ATCC 43300
# Procedure, shortened: as §1
# [3] = test system: Enterococcus faecium MDR Van A ATCC 51559; assay: MIC assay, E. faecium MDR Van A ATCC 51559
# Procedure, shortened: as §1
Minimum Inhibitory Concentration (MIC) S. pneumoniae ATCC 700677 [1],Minimum Inhibitory Concentration (MIC) Staph. aureus ATCC43300 [2],Minimum Inhibitory Concentration (MIC) E. faecium ATCC51559 [3],Compound
xxxx (xxxx = 0.01-<0.1),xxxx (xxxx = 0.01-<0.1),xx (xx = 1-4),CCCCCOc1ccc(C(=O)NC(CCCCN)C(=O)NC(CCCCN)C(=O)NCCCNC(=O)C2NC(=O)C3NC(=O)C(NC(=O)C4NC(=O)C(CC(N)=O)NC(=O)C(NC(=O)C(CC(C)C)NC)C(O)c5ccc(c(Cl)c5)Oc5cc4cc(c5OC4OC(CO)C(O)C(O)C4OC4CC(C)(N)C(O)C(C)O4)Oc4ccc(cc4Cl)C3O)c3ccc(O)c(c3)-c3c(O)cc(O)cc32)cc1 (stereo not drawn) [MCC_005361]
x (x = >4),xx (xx = 1-4),x (x = >4),CCC(=O)N[C@@H](CCCCN)C(=O)N[C@@H](CCCCN)C(=O)N[C@@H](CCCCNC(=O)[C@H]1NC(=O)[C@H]2NC(=O)[C@H](NC(=O)[C@@H]3NC(=O)[C@H](CC(N)=O)NC(=O)[C@H](NC(=O)[C@@H](CC(C)C)NC)[C@H](O)c4ccc(c(Cl)c4)Oc4cc3cc(c4O[C@@H]3O[C@H](CO)[C@@H](O)[C@H](O)[C@H]3O[C@H]3C[C@](C)(N)[C@H](O)[C@H](C)O3)Oc3ccc(cc3Cl)[C@H]2O)c2ccc(O)c(c2)-c2c(O)cc(O)cc21)C(=O)O [MCC_005388]
xx (xx = 1-4),xx (xx = 1-4),x (x = >4),CN[C@H](CC(C)C)C(=O)N[C@H]1C(=O)N[C@@H](CC(N)=O)C(=O)N[C@H]2C(=O)N[C@H]3C(=O)N[C@H](C(=O)N[C@H](C(=O)NCCCC[C@H](NC(=O)[C@H](CCCCN)NC(=O)[C@H](CCCCN)NC(=O)CCCOc4ccccc4)C(=O)O)c4cc(O)cc(O)c4-c4cc3ccc4O)[C@H](O)c3ccc(c(Cl)c3)Oc3cc2cc(c3O[C@@H]2O[C@H](CO)[C@@H](O)[C@H](O)[C@H]2O[C@H]2C[C@](C)(N)[C@H](O)[C@H](C)O2)Oc2ccc(cc2Cl)[C@H]1O [MCC_005501]
xx (xx = 1-4),xx (xx = 1-4),x (x = >4),CN[C@H](CC(C)C)C(=O)N[C@H]1C(=O)N[C@@H](CC(N)=O)C(=O)N[C@H]2C(=O)N[C@H]3C(=O)N[C@H](C(=O)N[C@H](C(=O)NCCCC[C@H](NC(=O)[C@H](CCCCN)NC(=O)[C@H](CCCCN)NC(=O)CC4CCCCC4)C(=O)O)c4cc(O)cc(O)c4-c4cc3ccc4O)[C@H](O)c3ccc(c(Cl)c3)Oc3cc2cc(c3O[C@@H]2O[C@H](CO)[C@@H](O)[C@H](O)[C@H]2O[C@H]2C[C@](C)(N)[C@H](O)[C@H](C)O2)Oc2ccc(cc2Cl)[C@H]1O [MCC_005502]
xxx (xxx = 0.1-<1),xxx (xxx = 0.1-<1),x (x = >4),CCCCCCC[C@H](O)CC(=O)N[C@@H](CCCCN)C(=O)N[C@@H](CCCCN)C(=O)N[C@@H](CCCCNC(=O)[C@H]1NC(=O)[C@H]2NC(=O)[C@H](NC(=O)[C@@H]3NC(=O)[C@H](CC(N)=O)NC(=O)[C@H](NC(=O)[C@@H](CC(C)C)NC)[C@H](O)c4ccc(c(Cl)c4)Oc4cc3cc(c4O[C@@H]3O[C@H](CO)[C@@H](O)[C@H](O)[C@H]3O[C@H]3C[C@](C)(N)[C@H](O)[C@H](C)O3)Oc3ccc(cc3Cl)[C@H]2O)c2ccc(O)c(c2)-c2c(O)cc(O)cc21)C(=O)O [MCC_005506]

# The remaining lines, values behind:
Compound,Minimum Inhibitory Concentration (MIC) S. pneumoniae ATCC 700677 [1],Minimum Inhibitory Concentration (MIC) Staph. aureus ATCC43300 [2],Minimum Inhibitory Concentration (MIC) E. faecium ATCC51559 [3]
CCCCCCCCCC(=O)N[C@@H](CCCNC(=N)N)C(=O)N[C@@H](CCCNC(=N)N)C(=O)NCCCNC(=O)[C@H]1NC(=O)[C@H]2NC(=O)[C@H](NC(=O)[C@@H]3NC(=O)[C@H](CC(N)=O)NC(=O)[C@H](NC(=O)[C@@H](CC(C)C)NC)[C@H](O)c4ccc(c(Cl)c4)Oc4cc3cc(c4O[C@@H]3O[C@H](CO)[C@@H](O)[C@H](O)[C@H]3O[C@H]3C[C@](C)(N)[C@H](O)[C@H](C)O3)Oc3ccc(cc3Cl)[C@H]2O)c2ccc(O)c(c2)-c2c(O)cc(O)cc21 [MCC_005482],xxxxx (xxxxx = <0.01),xxxxx (xxxxx = <0.01),xx (xx = 1-4)
CCCCCCCCCC(=O)N[C@@H](CCCNC(=N)N)C(=O)N1CCC(CNC(=O)[C@H]2NC(=O)[C@H]3NC(=O)[C@H](NC(=O)[C@@H]4NC(=O)[C@H](CC(N)=O)NC(=O)[C@H](NC(=O)[C@@H](CC(C)C)NC)[C@H](O)c5ccc(c(Cl)c5)Oc5cc4cc(c5O[C@@H]4O[C@H](CO)[C@@H](O)[C@H](O)[C@H]4O[C@H]4C[C@](C)(N)[C@H](O)[C@H](C)O4)Oc4ccc(cc4Cl)[C@H]3O)c3ccc(O)c(c3)-c3c(O)cc(O)cc32)CC1 [MCC_005484],xxxxx (xxxxx = <0.01),xxxxx (xxxxx = <0.01),x (x = >4)
CCCCCC1CCC(C(=O)NC(CCCCN)C(=O)NC(CCCCN)C(=O)NCCCNC(=O)C2NC(=O)C3NC(=O)C(NC(=O)C4NC(=O)C(CC(N)=O)NC(=O)C(NC(=O)C(CC(C)C)NC)C(O)c5ccc(c(Cl)c5)Oc5cc4cc(c5OC4OC(CO)C(O)C(O)C4OC4CC(C)(N)C(O)C(C)O4)Oc4ccc(cc4Cl)C3O)c3ccc(O)c(c3)-c3c(O)cc(O)cc32)CC1 (stereo not drawn) [MCC_005485],xxxxx (xxxxx = <0.01),xxxxx (xxxxx = <0.01),xx (xx = 1-4)
CCCCCCCCCC(=O)NC(CCCCN)C(=O)NC(CCCNC(=N)N)C(=O)NCCCNC(=O)C1NC(=O)C2NC(=O)C(NC(=O)C3NC(=O)C(CC(N)=O)NC(=O)C(NC(=O)C(CC(C)C)NC)C(O)c4ccc(c(Cl)c4)Oc4cc3cc(c4OC3OC(CO)C(O)C(O)C3OC3CC(C)(N)C(O)C(C)O3)Oc3ccc(cc3Cl)C2O)c2ccc(O)c(c2)-c2c(O)cc(O)cc21 (stereo not drawn) [MCC_005486],xxxx (xxxx = 0.01-<0.1),xxxxx (xxxxx = <0.01),xx (xx = 1-4)
CCCCCCCCCC(=O)NC(CCCNC(=N)N)C(=O)NC(CCCCN)C(=O)NCCCNC(=O)C1NC(=O)C2NC(=O)C(NC(=O)C3NC(=O)C(CC(N)=O)NC(=O)C(NC(=O)C(CC(C)C)NC)C(O)c4ccc(c(Cl)c4)Oc4cc3cc(c4OC3OC(CO)C(O)C(O)C3OC3CC(C)(N)C(O)C(C)O3)Oc3ccc(cc3Cl)C2O)c2ccc(O)c(c2)-c2c(O)cc(O)cc21 (stereo not drawn) [MCC_005487],xxxx (xxxx = 0.01-<0.1),xxxxx (xxxxx = <0.01),xxx (xxx = 0.1-<1)
CCCCCCCCCC(=O)N[C@@H](CCCCN)C(=O)N1CCC(CNC(=O)[C@H]2NC(=O)[C@H]3NC(=O)[C@H](NC(=O)[C@@H]4NC(=O)[C@H](CC(N)=O)NC(=O)[C@H](NC(=O)[C@@H](CC(C)C)NC)[C@H](O)c5ccc(c(Cl)c5)Oc5cc4cc(c5O[C@@H]4O[C@H](CO)[C@@H](O)[C@H](O)[C@H]4O[C@H]4C[C@](C)(N)[C@H](O)[C@H](C)O4)Oc4ccc(cc4Cl)[C@H]3O)c3ccc(O)c(c3)-c3c(O)cc(O)cc32)CC1 [MCC_005488],xxxx (xxxx = 0.01-<0.1),xxxx (xxxx = 0.01-<0.1),xx (xx = 1-4)
CCCCCC1CCC(C(=O)N[C@@H](CCCCN)C(=O)N[C@@H](CCCCN)C(=O)N[C@@H](CCCCNC(=O)[C@H]2NC(=O)[C@H]3NC(=O)[C@H](NC(=O)[C@@H]4NC(=O)[C@H](CC(N)=O)NC(=O)[C@H](NC(=O)[C@@H](CC(C)C)NC)[C@H](O)c5ccc(c(Cl)c5)Oc5cc4cc(c5O[C@@H]4O[C@H](CO)[C@@H](O)[C@H](O)[C@H]4O[C@H]4C[C@](C)(N)[C@H](O)[C@H](C)O4)Oc4ccc(cc4Cl)[C@H]3O)c3ccc(O)c(c3)-c3c(O)cc(O)cc32)C(=O)O)CC1 (stereo partly drawn) [MCC_005503],xxxx (xxxx = 0.01-<0.1),xxxx (xxxx = 0.01-<0.1),xx (xx = 1-4)
CCCCCOc1ccc(C(=O)N[C@@H](CCCCN)C(=O)N[C@@H](CCCCN)C(=O)N[C@@H](CCCCNC(=O)[C@H]2NC(=O)[C@H]3NC(=O)[C@H](NC(=O)[C@@H]4NC(=O)[C@H](CC(N)=O)NC(=O)[C@H](NC(=O)[C@@H](CC(C)C)NC)[C@H](O)c5ccc(c(Cl)c5)Oc5cc4cc(c5O[C@@H]4O[C@H](CO)[C@@H](O)[C@H](O)[C@H]4O[C@H]4C[C@](C)(N)[C@H](O)[C@H](C)O4)Oc4ccc(cc4Cl)[C@H]3O)c3ccc(O)c(c3)-c3c(O)cc(O)cc32)C(=O)O)cc1 [MCC_005504],xxx (xxx = 0.1-<1),xxx (xxx = 0.1-<1),x (x = >4)
CN[C@H](CC(C)C)C(=O)N[C@H]1C(=O)N[C@@H](CC(N)=O)C(=O)N[C@H]2C(=O)N[C@H]3C(=O)N[C@H](C(=O)N[C@H](C(=O)NCCCC[C@H](NC(=O)[C@H](CCCCN)NC(=O)[C@H](CCCCN)NC(=O)c4ccc(Cl)cc4)C(=O)O)c4cc(O)cc(O)c4-c4cc3ccc4O)[C@H](O)c3ccc(c(Cl)c3)Oc3cc2cc(c3O[C@@H]2O[C@H](CO)[C@@H](O)[C@H](O)[C@H]2O[C@H]2C[C@](C)(N)[C@H](O)[C@H](C)O2)Oc2ccc(cc2Cl)[C@H]1O [MCC_005505],xx (xx = 1-4),xx (xx = 1-4),x (x = >4)
